Laboratory results reported in publication PMC11571207, “Stereorandomized Oncocins with Preserved Ribosome Binding and Antibacterial Activity” (Journal of Medicinal Chemistry, 2024).
In brackets after ≈: the same amount, converted by molar mass. Several values for one entry are separate records, joined by “and”; a condition that tells them apart may be missing. Equal values may be shown once. Entries after “also recorded” stand apart in the source; their conditions may differ. Read-outs that look alike come from different tables or passages of the source. Non-standard residues stand in square brackets, D forms with d. Residues, ends and D or L forms follow the SMILES beside them. No end group written: not given here.

Legend:
[1] = 25% (v/v) human serum in 0.1 M TRIS buffer pH 7.4, peptide 200 μM, 37 °C, 0/24/48/72 h, LC-MS UV trace vs 4-hydroxybenzoic acid internal standard, n = 3
Experimental: Human serum was diluted in 0.1 M filtered TRIS buffer pH 7.4 (50%, 1:1, v/v). Selected peptides were diluted in 0.1 M filtered TRIS buffer pH 7.4 to a concentration of 400 μM and 0.1 mg/mL 4- hydroxybenzoic acid was added as internal standard. Aliquots of peptide solution (300 μL) were added to aliquots of serum (300 μL) in sterile 1.5 mL Eppendorf tubes, to reach a peptide concentration of 200 μM and 25% (v/v) human serum during the assay. Samples, in triplicate, were incubated at 37 °C under gentle stirri ng (200 rpm). At different time points (0, 24, 48 and 72 hours), 100 μL of each sample was collected and quenched by precipitating serum proteins through the addition of (0.1 M) ZnSO4·7 H2O / ACN (1:1) (0.1 M, 100 μL) and cooling in ice bath for 10 minutes. Protein precipitates were pelleted under centrifugation (5 min at 14’000 rpm) and the supernatants were analysed by LC-MS. Peaks corresponding to the internal standard and the undegraded peptides were integrated from the area under the curves (AUC) of UV traces, with the ratio peptide/standard at t = 0 h as 100%.
Figure S7. Serum stability assay of the respective compound (200 μM), incubated with human serum (25% in TRIS buffer, 0.1 M, pH 7.4) at 37 °C. Aliquots were taken at different time (0 / 24 / 48 and 72 h). Undegraded peptide values determined by RP -HPLC analysis usi ng hydroxybenzoic acid as internal standard. Measured in triplicates and the data represent mean ± SD, n […]
(1 picture or pasted object on this page, not shown here)

[2] = system: P. aeruginosa PA14 4.13 (phoQ); test: microbe, parasite or virus in culture; conditions: Pseudomonas aeruginosa
DnaK = molecular target: T1, DnaK (Escherichia coli, UniProt P0A6Y8); test: Microscale thermophoresis with His-Tag-labeled DnaK; assay type: binding; conditions: MST buffer
T1 construct: made in house; host or cells: E. coli BL21(DE3), pET28a T7 vector (synthetic gene, GenScript)
Experimental: A plasmid containing the DnaK insert was designed in SnapGene and ordered commercially as a synthetic gene (Figure S11). Chemically competent BL21(DE3) cells were transformed with the plasmid vector (GenScript), and positive transformants were selected on LB + Kanamycin agar. For protein expression, 6 mL of overnight cultures inoculated with a single colony were used to initiate shake-flask expression at 300 mL scale in LB + kanamycin ([…]) + 1 mM IPTG. The flasks were cultured overnight at 220 rpm, 37 °C, and the bacteria were harvested by centrifugation the next day. Pelleted cells were stored at −20 °C. […] The collected fractions were analyzed by SDS-PAGE. […]
DnaK labeling was performed using the Nanotemper Monolith His-Tag Labeling Kit RED-tris-NTA Second Generation. […] The fluorescence variation between the samples was measured in 4 replicates with the Monolith NT.115 device in Monolith NT.115 Premium Capillaries and analyzed with the MOcontrol software (Figures S13–S15).
To each sample, 10 μL of 40 nM His-Tag-labeled DnaK was added, resulting in a final volume of 20 μL per sample. The fluorescence variations between the samples were measured by using the Monolith NT.115 device with Monolith NT.115 Premium Capillaries. The data were analyzed with MOcontrol software to determine the binding affinity between L-onc and His-Tag-labeled DnaK (Figure S16).

T1 sequence (P0A6Y8 whole entry, species assumed): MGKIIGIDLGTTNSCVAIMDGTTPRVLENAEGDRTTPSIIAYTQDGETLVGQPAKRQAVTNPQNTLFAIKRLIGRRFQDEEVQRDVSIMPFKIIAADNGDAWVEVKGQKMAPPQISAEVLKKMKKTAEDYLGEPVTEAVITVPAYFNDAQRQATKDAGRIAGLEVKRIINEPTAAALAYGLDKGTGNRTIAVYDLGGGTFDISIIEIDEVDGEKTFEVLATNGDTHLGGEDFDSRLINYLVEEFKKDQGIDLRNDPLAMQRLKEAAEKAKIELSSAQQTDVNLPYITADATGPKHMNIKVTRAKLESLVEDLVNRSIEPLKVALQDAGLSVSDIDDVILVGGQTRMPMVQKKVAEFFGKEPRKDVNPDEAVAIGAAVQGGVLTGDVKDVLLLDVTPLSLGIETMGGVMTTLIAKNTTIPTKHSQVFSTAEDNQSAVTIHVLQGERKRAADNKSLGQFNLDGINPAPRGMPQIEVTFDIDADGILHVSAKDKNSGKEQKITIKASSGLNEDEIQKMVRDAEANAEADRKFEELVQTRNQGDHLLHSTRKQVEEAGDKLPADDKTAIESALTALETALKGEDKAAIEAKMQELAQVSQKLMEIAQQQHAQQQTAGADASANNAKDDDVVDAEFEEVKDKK

In the case of CC[C@H](C)[C@H](NC(=O)[C@@H](CCCNC(=N)N)NC(=O)[C@H](CCCNC(=N)N)NC(=O)[C@@H]1CCCN1C(=O)[C@@H]1CCCN1C(=O)[C@H](CCCNC(=N)N)NC(=O)[C@@H]1CCCN1C(=O)[C@H](CCCNC(=N)N)NC(=O)[C@@H]1CCCN1C(=O)[C@H](CC(C)C)NC(=O)[C@H](Cc1ccc(O)cc1)NC(=O)[C@@H]1CCCN1C(=O)[C@@H]1CCCN1C(=O)[C@H](CCCCN)NC(=O)[C@H](CC(=O)O)NC(=O)[C@@H](N)C(C)C)C(=O)N[C@@H](Cc1ccc(O)cc1)C(=O)N[C@@H](CC(N)=O)C(=O)N[C@H](CCCNC(=N)N)C(N)=O [Onc112, reference compound] (H-VDKPPYLPRPRPPR[dR]IYN[dR]-NH2), the “Serum stability (undegraded peptide)” value [1] is reported as “essentially stable to degradation over 24 h”.
Work on CC[C@H]1OC(=O)[C@H](C)[C@@H](O[C@H]2C[C@@](C)(OC)[C@@H](O)[C@H](C)O2)[C@H](C)[C@@H](O[C@@H]2O[C@H](C)C[C@H](N(C)C)[C@H]2O)[C@](C)(O)C[C@@H](C)CN(C)[C@H](C)[C@@H](O)[C@]1(C)O [AZM, azithromycin, reference compound] yielded an MIC ([2]; PA14, pH 7.4, read-out: MIC P. aeruginosa PA14 4.13 (phoQ), 12.5% MHB, polymyxin B resistant strain, 12.5% MHB pH 7.4, 16–20 h at 37 °C) of 16 to 32 µg/mL (≈ 21.4 to 42.7 µM) and an MIC ([2]; PA14, pH 7.4, read-out: MIC P. aeruginosa PA14 4.13, supplement CSV, 12.5% MH pH 7.4) of 16 to 32 µg/mL (≈ 21.4 to 42.7 µM).
In the case of “VDKPPYLPRPRPPRRIYNR-NH2 [L-Onc, reference compound]”, the Kd (DnaK; 2-fold serial dilution from 100 μM, His-Tag-labeled DnaK, read-out: KD, apparent binding to DnaK) is reported as 29.8 µM and ~30 µM and the “Serum stability (undegraded peptide)” value [1] is reported as “rapidly degraded”.
With “VDKPPYLPRPRPPRRIYNR [sr-Onc] (VDKPPYLPRPRPPRRIYNR-NH2; also: all 19 residues stereorandomized (1:1 L/D mixture)) [fully stereorandomized oncocin]” the DnaK binding check (DnaK; 20 nM His-Tag-labeled DnaK, 50 μM peptide, 4 replicates) was “negative for binding; also recorded: no detectable binding to DnaK”.
